Structures are written as SMILES.

The test system of the first test is Cyclin-dependent kinase. Description: Cyclin-dependent kinase inhibition, % inhibition at 10 nM (library Examples 99-270). It is filed as biochemical. To be noted: 10 nM compound. In a few lines:
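Enzyme starts the reaction at 30° C, which runs 20 min with 25 μM [³²P/³³P]ATP and protein substrate (pH 7.4, 10 mM MgCl2, 2% DMSO). After EDTA quench, membrane-bound labelled substrate is read by phosphorimaging following acid washes.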
As to `CCNCc1cncc(-c2ccc3[nH]nc(-c4ncc(C(=O)N5CCC(S(C)(=O)=O)C5)[nH]4)c3c2)c1C` (stereo not shown) [Example 240], the “% Inhib @ 10 nM” value was 71%.
Still for that read-out and setting: the value for `CCNCc1cncc(-c2ccc3[nH]nc(-c4ncc(C(=O)N(C)CC)[nH]4)c3c2)c1C` [Example 178, N-ethyl-2-(5-{5-[(ethylamino)methyl]-4-methylpyridin-3-yl}-1H-indazol-3-yl)-N-methyl-1H-imidazole-5-carboxamrde] was 73%; that for `CCNCc1cncc(-c2ccc3[nH]nc(-c4ncc(C(=O)N5CCC6(CC5)CNC(=O)C6)[nH]4)c3c2)c1C` [Example 205, 8-{[2-(5-{5-[(ethylamino)methyl]-4-methylpyridin-3-yl}-1H-indazol-3-yl)-1H-imidazol-5-yl]carbanyl}-2,8-diazaspiro[4.5]decan-3-one] was 40%.
For the molecule `CCNCc1cncc(-c2ccc3[nH]nc(-c4ncc(C(=O)N5CC6C[C@H]5CN6)[nH]4)c3c2)c1C` [Example 187], the “% Inhib @ 10 nM” value is listed as 44%.
On the same count and under the same terms, then `CCNCc1cncc(-c2ccc3[nH]nc(-c4ncc(C(=O)NCc5ccc(-c6csnn6)cc5)[nH]4)c3c2)c1C` [Example 224], with 72%.

The next test deals with T1, CDK2/Cyclin A (Homo sapiens, UniProt P24941).
T1 construct: made in house; host or cells: CDK2: insect cells (baculovirus); cyclin A: E. coli
As to the kind of experiment: Inhibition of CDK2/Cyclin A retinoblastoma kinase activity (apparent Ki). In kind it is biochemical. To be noted: read-out: CDK2 Ki. The method, then: Cyclin-dependent kinase activity was measured by quantifying the enzyme-catalyzed, time-dependent incorporation of radioactive phosphate from [^32P]ATP or [^33P]ATP into a protein substrate. […] Reactions were initiated with enzyme, incubated at 30° C., and terminated after 20 minutes by the addition of ethylenediaminetetraacetic acid (EDTA) to 250 mM. […] Radioactivity was quantified by exposing the dried membranes to a phosphorimager.
Apparent Ki values were measured by assaying enzyme activity in the presence of different inhibitor compound concentrations and subtracting the background radioactivity measured in the absence of enzyme. Inhibition data were fit to an equation for competitive inhibition using Kaleidagraph (Synergy Software), or were fit to an equation for competitive tight-binding inhibition using the software KineTic (BioKin, Ltd.).
A complex of CDK2 and proteolyzed cyclin A was prepared and purified by gel filtration. […] Ki values were measured as described above.
On to `Cc1c(N)cncc1-c1ccc2[nH]nc(-c3nc(-c4ccc(F)cc4)c[nH]3)c2c1` [Example 40, 5-{3-[4-(4-Fluoro-phenyl)-1H-imidazol-2-yl]-1H-indazol-5-yl}-4-methyl-pyridin-3-ylamine], for which the Ki is less than 50 nM.
Regarding `CCNCc1cncc(-c2ccc3[nH]nc(-c4nc(C(=O)NC5CCCC5)c[nH]4)c3c2)c1C` [Example 58, N-cyclopentyl-2-(5-{5-[(ethylamino)methyl]-4-methylpyridin-3-yl}-1H-indazol-3-yl)-1H-imidazole-5-carboxamide], the Ki is less than 50 nM.
Take `CCNCc1cncc(-c2ccc3[nH]nc(-c4nc(C(=O)NCc5ccccn5)c[nH]4)c3c2)c1C` [Example 52, 2-(5-{5-[(ethylamino)methyl]-4-methylpyridin-3-yl}-1H-indazol-3-yl)-N-(pyridin-2-ylmethyl)1H-imidazole-5-carboxamide]: the Ki was less than 50 nM.
Regarding `CCNCc1cncc(-c2ccc3[nH]nc(-c4nc(-c5ccccc5)c(C(=O)NC)[nH]4)c3c2)c1C` [Example 6, 2-[5-(5-Ethylaminomethyl-4-methyl-pyridin-3-yl)-1H-indazol-3-yl]-5-phenyl-3H-imidazole-4-carboxylic acid methylamide], the Ki fell in the range of 50 to 200 nM.
For `CCNCc1cncc(-c2ccc3[nH]nc(-c4nc(C)c[nH]4)c3c2)c1C` [Example 92, N-({4-methyl-5-[3-(4-methyl-1H-imidazol-2-yl)-1H-indazol-5-yl]pyridin-3-yl}methyl)ethanamine], the Ki is less than 50 nM.
Consider `CCNCc1cncc(-c2ccc3[nH]nc(-c4ncc(C(=O)N(CC)CC)[nH]4)c3c2)c1C` [Example 56, N,N-diethyl-2-(5-{5-[(ethylamino)methyl]-4-methylpyridin-3-yl}-1H-indazol-3-yl)-1H-imidazole-5-carboxamide], for which the Ki is less than 50 nM.
Regarding `CCNCc1cncc(-c2ccc3[nH]nc(-c4nnn[nH]4)c3c2)c1C` [Example 91, Ethyl-{4-methyl-5-[3-(1H-tetrazol-5-yl)-1H-indazol-5-yl]-pyridin-3-ylmethyl}-amine], the Ki is greater than 200 nM.
Consider `CNCc1cncc(-c2ccc3[nH]nc(-c4nc(C)c[nH]4)c3c2)c1C` [Example 93, N-methyl-1-{4-methyl-5-[3-(4-methyl-1H-imidazol-2-yl)-1H-indazol-5-yl]pyridin-3-yl}methanamine], for which the Ki is less than 50 nM.
On to `CCNCc1cncc(-c2ccc3[nH]nc(-c4ncc(C(=O)N(C)C5CCN(C)C5)[nH]4)c3c2)c1C` (stereo not shown) [Example 84, 2-(5-{5-[(ethylamino)methyl]-4-methylpyridin-3-yl}-1H-indazol-3-yl)-N-methyl-N-(1-methylpyrrolidin-3-yl)-1H-imidazole-5-carboxamide], for which the Ki fell in the range of 50 to 200 nM.
Take `CCNCc1cncc(-c2ccc3[nH]nc(-c4nc(-c5ccc(OC)c(OC)c5)c[nH]4)c3c2)c1C` [Example 33, (5-{3-[4-(3,4-Dimethoxy-phenyl)-1H-imidazol-2-yl]-1H-indazol-5-yl}-4-methyl-pyridin-3-ylmethyl)-ethyl-amine]: the Ki is less than 50 nM.
Same read-out and setting: the value for `CCNCc1cncc(-c2ccc3[nH]nc(-c4nc(-c5ccccc5)c(C(=O)NCCCO)[nH]4)c3c2)c1C` [Example 17, 2-[5-(5-Ethylaminomethyl-4-methyl-pyridin-3-yl)-1H-indazol-3-yl]-5-phenyl-3H-imidazole-4-carboxylic acid (3-hydroxy-propyl)-amide] was 50 to 200 nM.
As for `CCNCc1cncc(-c2ccc3[nH]nc(-c4nc(-c5ccccc5)c(C(=O)NC5CCCCC5)[nH]4)c3c2)c1C` [Example 12, 2-[5-(5-Ethylaminomethyl-4-methyl-pyridin-3-yl)-1H-indazol-3-yl]-5-phenyl-3H-imidazole-4-carboxylic acid cyclohexylamide], the Ki fell in the range of 50 to 200 nM.
Turning to `CCNCc1cncc(-c2ccc3[nH]nc(-c4cc(C)n[nH]4)c3c2)c1C` [Example 89, Ethyl-{4-methyl-5-[3-(5-methyl-2H-pyrazol-3-yl)-1H-indazol-5-yl]-pyridin-3-ylmethyl}-amine], the Ki was less than 50 nM.
Turning to `CCNCc1cncc(-c2ccc3[nH]nc(-c4nc(C(=O)N5CCN(C)CC5)c[nH]4)c3c2)c1C` [Example 57, N-{[4-methyl-5-(3-{5-[(4-methylpiperazin-1-yl)carbonyl]-1H-imidazol-2-yl}-1H-indazol-5-yl)pyridin-3-yl]methyl}ethanamine], the Ki was less than 50 nM.
For the molecule `CCNCc1cncc(-c2ccc3[nH]nc(-c4ncc(C(=O)N(C)C5CCN(Cc6ccccc6)C5)[nH]4)c3c2)c1C` (stereo not shown) [Example 82, N-(1-benzylpyrrolidin-3-yl)-2-(5-{5-[(ethylamino)methyl]-4-methylpyridin-3-yl}-1H-indazol-3yl)-N-methyl-1H-imidazole-5-carboxamide], the Ki is less than 50 nM.
On the same count and under the same terms, then `CCNCc1cncc(-c2ccc3[nH]nc(-c4ncc(C(=O)N5CCN(c6ccccc6)CC5)[nH]4)c3c2)c1C` [Example 59, N-{[4-methyl-5-(3-{5-[(4-phenylpiperazin-1-yl)carbonyl]-1H-imidazol-2-yl}-1H-indazol-5-yl)pyridin-3-yl]methyl}ethanamine], with less than 50 nM.
Same read-out and setting: then `CCNCc1cncc(-c2ccc3[nH]nc(-c4nc(-c5ccccc5)c(C(=O)NCCCCO)[nH]4)c3c2)c1C` [Example 18, 2-[5-(5-Ethylaminomethyl-4-methyl-pyridin-3-yl)-1H-indazol-3-yl]-5-phenyl-3H-imidazole-4-carboxylic acid (4-hydroxy-butyl)-amide], with greater than 200 nM; and `CCNCc1cncc(-c2ccc3[nH]nc(-c4nc(-c5ccc(OC)cc5)c[nH]4)c3c2)c1C` [Example 34, Ethyl-(5-{3-[4-(4-methoxy-phenyl)-1H-imidazol-2-yl]-1H-indazol-5-yl}-4-methyl-pyridin-3-ylmethyl)-amine], with less than 50 nM; and `Cc1c(N)cncc1-c1ccc2[nH]nc(-c3nc(-c4ccccc4)c[nH]3)c2c1` [Example 39, 4-Methyl-5-[3-(4-phenyl-1H-imidazol-2-yl)-1H-indazol-5-yl]-pyridin-3-ylamine], with less than 50 nM.
Take `CCNCc1cncc(-c2ccc3[nH]nc(-c4nc(-c5ccccc5)c(C(=O)NCCN(C)C)[nH]4)c3c2)c1C` [Example 16, 2-[5-(5-Ethylaminomethyl-4-methyl-pyridin-3-yl)-1H-indazol-3-yl]-5-phenyl-3H-imidazole-4-carboxylic acid (2-dimethylamino-ethyl)-amide]: the Ki is greater than 200 nM.
Same read-out and setting: then `CCNCc1cncc(-c2ccc3[nH]nc(-c4ncc(C(=O)N(CCN(C)C)Cc5ccccc5)[nH]4)c3c2)c1C` [Example 81, N-benzyl-N-[2-(dimethylamino)ethyl]-2-(5-{5-[(ethylamino)methyl]-4-methylpyridin-3-yl}-1H-indazol-3-yl)-1H-imidazole-5-carboxamide], with less than 50 nM; and `Cc1c(N)cncc1-c1ccc2[nH]nc(-c3nc4c([nH]3)CCCC4)c2c1` [Example 36, 4-Methyl-5-[3-(4,5,6,7-tetrahydro-1H-benzoimidazol-2-yl)-1H-indazol-5-yl]-pyridin-3-ylamine], with less than 50 nM; and `CNCc1cncc(-c2ccc3[nH]nc(-c4ncc[nH]4)c3c2)c1C` [Example 45, {5-[3-(1H-Imidazol-2-yl)-1H-indazol-5-yl]-4-methyl-pyridin-3-ylmethyl}-methyl-amine], with less than 50 nM.
On the same count and under the same terms, the value for `CCNCc1cncc(-c2ccc3[nH]nc(-c4ncc(C(=O)NCCC5=CCCCC5)[nH]4)c3c2)c1C` [Example 80, N-(2-cyclohex-1-en-1-ylethyl)-2-(5-{5-[(ethylamino)methyl]-4-methylpyridin-3-yl}-1H-indazol-3-yl)-1H-imidazole-5-carboxamide] was less than 50 nM; that for `CCNCc1cncc(-c2ccc3[nH]nc(-c4ncc(C(=O)N5CCCC(Cc6ncccn6)CC5)[nH]4)c3c2)c1C` (stereo not shown) [Example 79, N-({4-methyl-5-[3-(5-{[4-(pyrimidin-2-ylmethyl)azepan-1-yl]carbonyl}-1H-imidazol-2-yl)-1H-indazol-5-yl]pyridin-3-yl}methyl)ethanamine] was less than 50 nM; that for `CCNCc1cncc(-c2ccc3[nH]nc(-c4ocnc4C)c3c2)c1C` [Example 88, N-({4-methyl-5-[3-(4-methyl-1,3-oxazol-5-yl)-1H-indazol-5-yl]pyridin-3-yl}methyl)ethanamine] was greater than 200 nM.

The values above are taken from patent US20050090529A1, “3,5 Disubstituted indazole compounds with nitrogen-bearing 5-membered heterocycles, pharmaceutical compositions, and methods for mediating or inhibiting cell proliferation” (PFIZER INC, priority 2003, published 2005).
